Test results reported in the kinase profiling compilation of Christmann-Franck et al. (2016).

How the values were obtained:
Assay in all cases: KINOMEscan competition binding
Conditions in all cases: compound 10.0 µM
TYRO3 (human) = TYRO3 (human) (UniProt Q06418)
MAP4K1 (human) = MAP4K1 (human) (UniProt Q92918)
[1] = target: TYK2 JH1 catalytic (human) (UniProt P29597)
ROCK2 (human) = ROCK2 (human) (UniProt O75116)
ACVR2A (human) = ACVR2A (human) (UniProt P27037)
PLK4 (human) = PLK4 (human) (UniProt O00444)
CSNK2A2 (human) = CSNK2A2 (human) (UniProt P19784)
PTK2 (human) = PTK2 (human) (UniProt Q05397)
ALK (human) = ALK (human) (UniProt Q9UM73)
ADCK4 (human) = ADCK4 (human) (UniProt Q96D53)
PRKX (human) = PRKX (human) (UniProt P51817)
STK10 (human) = STK10 (human) (UniProt O94804)
CAMK1G (human) = CAMK1G (human) (UniProt Q96NX5)
MAP2K2 (human) = MAP2K2 (human) (UniProt P36507)
ZAP70 (human) = ZAP70 (human) (UniProt P43403)
[2] = target: JAK1 JH1 catalytic (human) (UniProt P23458)
AURKB (human) = AURKB (human) (UniProt Q96GD4)
CAMK2A (human) = CAMK2A (human) (UniProt Q9UQM7)
MAP4K3 (human) = MAP4K3 (human) (UniProt Q8IVH8)
CDK18 (human) = CDK18 (human) (UniProt Q07002)
TXK (human) = TXK (human) (UniProt P42681)
STK33 (human) = STK33 (human) (UniProt Q9BYT3)
RIOK3 (human) = RIOK3 (human) (UniProt O14730)
CHEK1 (human) = CHEK1 (human) (UniProt O14757)
PIK3CB (human) = PIK3CB (human) (UniProt P42338)
MAPK15 (human) = MAPK15 (human) (UniProt Q8TD08)
SIK2 (human) = SIK2 (human) (UniProt Q9H0K1)
DCLK1 (human) = DCLK1 (human) (UniProt O15075)
CDC42BPB (human) = CDC42BPB (human) (UniProt Q9Y5S2)
EIF2AK2 (human) = EIF2AK2 (human) (UniProt P19525)
EGFR (human) = EGFR (human) (UniProt P00533)
MAPK12 (human) = MAPK12 (human) (UniProt P53778)
[3] = system: EGFR (human), P00533 [752-759 del]
BLK (human) = BLK (human) (UniProt P51451)
CDK5 (human) = CDK5 (human) (UniProt Q00535)

Sequence of TYRO3 (human) (Q06418 whole entry, looked up): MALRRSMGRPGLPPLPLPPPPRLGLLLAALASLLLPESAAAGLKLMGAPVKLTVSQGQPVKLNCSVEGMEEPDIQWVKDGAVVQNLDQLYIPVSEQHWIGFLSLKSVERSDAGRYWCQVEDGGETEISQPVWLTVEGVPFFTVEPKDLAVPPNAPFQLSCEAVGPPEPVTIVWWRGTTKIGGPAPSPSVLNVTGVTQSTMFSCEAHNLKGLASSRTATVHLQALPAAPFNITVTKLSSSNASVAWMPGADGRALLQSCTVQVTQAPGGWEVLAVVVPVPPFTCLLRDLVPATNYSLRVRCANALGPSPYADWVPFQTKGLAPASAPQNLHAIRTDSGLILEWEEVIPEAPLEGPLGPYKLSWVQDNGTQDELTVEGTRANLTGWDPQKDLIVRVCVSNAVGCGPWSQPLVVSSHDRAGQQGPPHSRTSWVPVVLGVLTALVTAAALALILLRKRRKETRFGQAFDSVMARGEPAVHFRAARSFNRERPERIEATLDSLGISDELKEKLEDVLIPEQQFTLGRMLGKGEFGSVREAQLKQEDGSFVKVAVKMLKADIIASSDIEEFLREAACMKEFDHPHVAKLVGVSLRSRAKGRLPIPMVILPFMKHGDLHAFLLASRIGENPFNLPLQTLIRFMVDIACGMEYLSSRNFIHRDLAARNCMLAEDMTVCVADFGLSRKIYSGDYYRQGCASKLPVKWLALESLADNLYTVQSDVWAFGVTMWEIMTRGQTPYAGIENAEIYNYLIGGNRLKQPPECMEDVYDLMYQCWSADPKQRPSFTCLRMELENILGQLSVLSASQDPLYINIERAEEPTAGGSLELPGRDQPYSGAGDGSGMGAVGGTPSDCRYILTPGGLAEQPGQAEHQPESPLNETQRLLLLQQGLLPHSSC
Sequence of TYK2 JH1 catalytic (human) (P29597 whole entry, looked up): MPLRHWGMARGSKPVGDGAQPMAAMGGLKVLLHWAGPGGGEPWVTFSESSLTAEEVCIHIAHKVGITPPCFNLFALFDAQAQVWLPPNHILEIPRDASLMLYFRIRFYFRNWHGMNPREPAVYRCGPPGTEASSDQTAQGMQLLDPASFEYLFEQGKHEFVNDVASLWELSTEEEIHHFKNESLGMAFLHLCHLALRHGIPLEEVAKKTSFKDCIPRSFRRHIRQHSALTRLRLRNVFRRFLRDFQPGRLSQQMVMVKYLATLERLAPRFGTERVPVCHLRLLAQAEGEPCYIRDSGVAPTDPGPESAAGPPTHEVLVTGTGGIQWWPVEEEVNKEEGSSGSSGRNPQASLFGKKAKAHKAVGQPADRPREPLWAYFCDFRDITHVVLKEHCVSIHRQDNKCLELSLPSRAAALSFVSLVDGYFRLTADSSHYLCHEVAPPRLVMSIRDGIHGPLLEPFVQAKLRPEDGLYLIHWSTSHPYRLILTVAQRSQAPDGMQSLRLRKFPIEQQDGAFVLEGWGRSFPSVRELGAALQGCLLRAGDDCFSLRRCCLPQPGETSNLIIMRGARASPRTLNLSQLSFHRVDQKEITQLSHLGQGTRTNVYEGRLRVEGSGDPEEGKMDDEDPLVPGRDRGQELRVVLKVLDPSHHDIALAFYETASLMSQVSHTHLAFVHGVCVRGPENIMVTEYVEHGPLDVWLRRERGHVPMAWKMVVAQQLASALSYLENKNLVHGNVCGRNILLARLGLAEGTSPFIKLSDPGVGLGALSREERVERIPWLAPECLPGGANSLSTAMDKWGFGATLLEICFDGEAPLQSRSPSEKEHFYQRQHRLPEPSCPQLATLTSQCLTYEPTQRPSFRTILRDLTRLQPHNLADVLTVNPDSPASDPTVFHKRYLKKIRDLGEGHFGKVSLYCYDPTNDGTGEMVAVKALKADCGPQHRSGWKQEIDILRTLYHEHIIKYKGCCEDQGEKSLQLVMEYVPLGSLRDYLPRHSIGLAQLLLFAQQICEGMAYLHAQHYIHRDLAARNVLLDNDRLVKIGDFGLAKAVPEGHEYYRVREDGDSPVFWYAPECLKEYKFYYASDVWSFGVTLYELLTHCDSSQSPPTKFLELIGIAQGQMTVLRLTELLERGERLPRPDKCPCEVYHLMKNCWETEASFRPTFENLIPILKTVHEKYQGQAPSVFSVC
Sequence of CAMK2A (human) (Q9UQM7 whole entry, looked up): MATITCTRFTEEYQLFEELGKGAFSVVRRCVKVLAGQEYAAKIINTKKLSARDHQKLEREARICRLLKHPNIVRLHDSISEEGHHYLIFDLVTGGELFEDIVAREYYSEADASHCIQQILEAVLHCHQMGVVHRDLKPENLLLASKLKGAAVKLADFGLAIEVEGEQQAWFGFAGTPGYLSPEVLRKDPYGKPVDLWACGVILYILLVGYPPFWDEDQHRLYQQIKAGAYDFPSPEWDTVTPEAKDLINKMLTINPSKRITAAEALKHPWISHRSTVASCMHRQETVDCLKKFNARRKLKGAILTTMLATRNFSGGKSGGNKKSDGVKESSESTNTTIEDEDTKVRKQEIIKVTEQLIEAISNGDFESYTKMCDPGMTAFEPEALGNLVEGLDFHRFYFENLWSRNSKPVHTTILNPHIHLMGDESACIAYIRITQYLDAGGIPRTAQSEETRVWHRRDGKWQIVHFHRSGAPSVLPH
Sequence of RIOK3 (human) (O14730 whole entry, looked up): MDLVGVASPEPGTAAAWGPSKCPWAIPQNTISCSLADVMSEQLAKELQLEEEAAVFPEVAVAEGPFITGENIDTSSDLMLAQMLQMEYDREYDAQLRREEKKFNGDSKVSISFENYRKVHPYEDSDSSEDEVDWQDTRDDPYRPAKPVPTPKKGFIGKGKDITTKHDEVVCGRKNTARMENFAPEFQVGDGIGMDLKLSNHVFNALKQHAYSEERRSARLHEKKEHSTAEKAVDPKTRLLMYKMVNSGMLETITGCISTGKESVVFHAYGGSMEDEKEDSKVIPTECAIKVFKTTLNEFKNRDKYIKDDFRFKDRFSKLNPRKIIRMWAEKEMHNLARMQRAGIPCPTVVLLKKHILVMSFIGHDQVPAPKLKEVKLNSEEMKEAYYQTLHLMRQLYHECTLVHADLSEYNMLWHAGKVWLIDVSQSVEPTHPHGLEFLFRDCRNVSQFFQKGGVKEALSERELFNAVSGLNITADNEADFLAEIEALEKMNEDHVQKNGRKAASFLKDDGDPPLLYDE
Sequence of DCLK1 (human) (O15075 whole entry, looked up): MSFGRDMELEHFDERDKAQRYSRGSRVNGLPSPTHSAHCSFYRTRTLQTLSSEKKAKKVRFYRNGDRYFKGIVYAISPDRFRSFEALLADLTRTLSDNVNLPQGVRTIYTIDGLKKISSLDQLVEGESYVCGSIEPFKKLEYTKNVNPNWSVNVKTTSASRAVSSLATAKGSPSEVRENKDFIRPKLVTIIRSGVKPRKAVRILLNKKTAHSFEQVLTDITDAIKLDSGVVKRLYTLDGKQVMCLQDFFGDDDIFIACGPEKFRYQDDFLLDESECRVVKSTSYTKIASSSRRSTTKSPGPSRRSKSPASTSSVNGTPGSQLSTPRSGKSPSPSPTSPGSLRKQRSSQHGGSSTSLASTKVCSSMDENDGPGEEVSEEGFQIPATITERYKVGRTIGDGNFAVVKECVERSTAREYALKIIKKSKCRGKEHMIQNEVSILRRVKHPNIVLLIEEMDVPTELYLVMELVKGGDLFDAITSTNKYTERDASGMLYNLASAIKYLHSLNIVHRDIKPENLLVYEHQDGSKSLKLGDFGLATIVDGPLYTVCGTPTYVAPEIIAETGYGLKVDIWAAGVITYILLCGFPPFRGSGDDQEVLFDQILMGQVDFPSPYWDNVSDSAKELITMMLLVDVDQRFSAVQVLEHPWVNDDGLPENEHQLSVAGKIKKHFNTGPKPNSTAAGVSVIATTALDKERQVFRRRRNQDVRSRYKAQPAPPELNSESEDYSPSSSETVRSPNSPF
Sequence of ZAP70 (human) (P43403 whole entry, looked up): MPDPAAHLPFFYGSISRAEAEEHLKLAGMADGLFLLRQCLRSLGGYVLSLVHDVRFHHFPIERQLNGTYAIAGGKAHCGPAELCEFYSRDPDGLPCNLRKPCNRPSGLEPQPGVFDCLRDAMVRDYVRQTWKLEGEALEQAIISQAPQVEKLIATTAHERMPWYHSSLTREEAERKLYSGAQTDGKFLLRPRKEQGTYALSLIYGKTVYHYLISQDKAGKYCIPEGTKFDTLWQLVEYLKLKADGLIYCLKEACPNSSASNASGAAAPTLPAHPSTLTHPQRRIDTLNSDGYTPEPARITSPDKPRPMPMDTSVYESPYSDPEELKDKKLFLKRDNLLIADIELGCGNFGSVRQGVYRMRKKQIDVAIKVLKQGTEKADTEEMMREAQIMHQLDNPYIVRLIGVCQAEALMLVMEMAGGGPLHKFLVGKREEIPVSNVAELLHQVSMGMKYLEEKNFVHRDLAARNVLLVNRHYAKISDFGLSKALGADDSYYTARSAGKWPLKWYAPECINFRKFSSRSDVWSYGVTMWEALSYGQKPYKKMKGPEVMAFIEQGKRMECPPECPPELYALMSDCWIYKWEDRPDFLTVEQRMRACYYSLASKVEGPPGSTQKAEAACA
Sequence of EIF2AK2 (human) (P19525 whole entry, looked up): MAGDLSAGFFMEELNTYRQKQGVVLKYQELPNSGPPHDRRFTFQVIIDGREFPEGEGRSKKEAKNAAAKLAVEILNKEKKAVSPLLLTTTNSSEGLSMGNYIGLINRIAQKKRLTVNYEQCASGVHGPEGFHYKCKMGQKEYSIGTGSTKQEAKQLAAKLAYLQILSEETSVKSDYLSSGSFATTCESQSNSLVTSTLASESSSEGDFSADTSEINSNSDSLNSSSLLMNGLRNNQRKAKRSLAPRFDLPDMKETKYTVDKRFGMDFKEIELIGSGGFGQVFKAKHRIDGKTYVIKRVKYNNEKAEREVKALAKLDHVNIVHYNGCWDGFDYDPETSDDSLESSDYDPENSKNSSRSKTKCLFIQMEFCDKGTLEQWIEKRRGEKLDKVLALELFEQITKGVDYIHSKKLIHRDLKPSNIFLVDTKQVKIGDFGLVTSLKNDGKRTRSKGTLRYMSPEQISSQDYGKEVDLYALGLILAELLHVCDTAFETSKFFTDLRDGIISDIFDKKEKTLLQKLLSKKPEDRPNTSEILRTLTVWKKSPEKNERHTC

Structure (SMILES)	kinase still bound, per cent of control (TYRO3 (human)) [%]	kinase still bound, per cent of control (MAP4K1 (human)) [%]	kinase still bound, per cent of control [1] [%]	kinase still bound, per cent of control (ACVR2A (human)) [%]	kinase still bound, per cent of control (PLK4 (human)) [%]	kinase still bound, per cent of control (CSNK2A2 (human)) [%]	kinase still bound, per cent of control (PTK2 (human)) [%]	kinase still bound, per cent of control (ALK (human)) [%]	kinase still bound, per cent of control (ADCK4 (human)) [%]	kinase still bound, per cent of control (PRKX (human)) [%]	kinase still bound, per cent of control (STK10 (human)) [%]	kinase still bound, per cent of control (CAMK1G (human)) [%]	kinase still bound, per cent of control (MAP2K2 (human)) [%]	kinase still bound, per cent of control (ZAP70 (human)) [%]	kinase still bound, per cent of control (AURKB (human)) [%]	kinase still bound, per cent of control (CAMK2A (human)) [%]	kinase still bound, per cent of control (MAP4K3 (human)) [%]	kinase still bound, per cent of control (CDK18 (human)) [%]	kinase still bound, per cent of control (TXK (human)) [%]	kinase still bound, per cent of control (STK33 (human)) [%]	further results
Cc1n[nH]c2ccc(-c3cncc(OC[C@@H](N)Cc4c[nH]c5ccccc45)c3)cc12	100	23	100	100	100	13	100	100	100	12	100	100	100	100	100	0.7	9.5	28	100	2.6	kinase still bound, per cent of control (ROCK2 (human)): 0%; kinase still bound, per cent of control [2]: 100%; kinase still bound, per cent of control (RIOK3 (human)): 2.7%; kinase still bound, per cent of control (CHEK1 (human)): 100%; kinase still bound, per cent of control (PIK3CB (human)): 100%; kinase still bound, per cent of control (MAPK15 (human)): 0%; kinase still bound, per cent of control (SIK2 (human)): 100%; kinase still bound, per cent of control (DCLK1 (human)): 100%; kinase still bound, per cent of control (CDC42BPB (human)): 1%; kinase still bound, per cent of control (EIF2AK2 (human)): 100%
CNC(=O)c1ccc(Nc2cc(Nc3ccccc3S(=O)(=O)C(C)C)c3cc[nH]c3n2)nc1	29	7.9	0.25	100	4.5	18	0	1.8	25	100	0	100	5.2	100	0.7	100	1	100	33	1.4	kinase still bound, per cent of control (ROCK2 (human)): 0.95%; kinase still bound, per cent of control (EGFR (human)): 100%; kinase still bound, per cent of control (MAPK12 (human)): 100%; kinase still bound, per cent of control [2]: 2%; kinase still bound, per cent of control [3]: 100%; kinase still bound, per cent of control (RIOK3 (human)): 2.9%; kinase still bound, per cent of control (CHEK1 (human)): 100%; kinase still bound, per cent of control (PIK3CB (human)): 100%; kinase still bound, per cent of control (BLK (human)): 0.55%; kinase still bound, per cent of control (MAPK15 (human)): 8%; kinase still bound, per cent of control (SIK2 (human)): 9.8%; kinase still bound, per cent of control (DCLK1 (human)): 100%; kinase still bound, per cent of control (CDC42BPB (human)): 100%; kinase still bound, per cent of control (EIF2AK2 (human)): 100%; kinase still bound, per cent of control (CDK5 (human)): 28%
CCN(CC)CCCCNc1ncc2cc(-c3cc(OC)cc(OC)c3)c(NC(=O)NC(C)(C)C)nc2n1	100	100	100	100	100	100	100	100	100	100	100	100	100	100	100	100	100	100	100	100	kinase still bound, per cent of control (MAPK12 (human)): 100%; kinase still bound, per cent of control (RIOK3 (human)): 100%; kinase still bound, per cent of control (CHEK1 (human)): 100%; kinase still bound, per cent of control (BLK (human)): 100%; kinase still bound, per cent of control (MAPK15 (human)): 100%; kinase still bound, per cent of control (SIK2 (human)): 100%; kinase still bound, per cent of control (DCLK1 (human)): 100%; kinase still bound, per cent of control (CDC42BPB (human)): 100%; kinase still bound, per cent of control (EIF2AK2 (human)): 24%; kinase still bound, per cent of control (CDK5 (human)): 100%
